Reference: PubChem BioAssay (NCI)
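These data come from cells grown in 96-well plates and exposed to compound for 48 hours at five concentrations. The concentration for 50% growth inhibition is given as GI50. TGI denotes the concentration required for complete inhibition of growth.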

Key:
Experiment in all cases: NCI anticancer screen, dose series, 48 h
A498 renal = system: A498 renal
A549 NSCLC = system: A549 NSCLC
HCC-2998 colon = system: HCC-2998 colon
MALME-3M melanoma = system: MALME-3M melanoma
MDA-MB-231 breast = system: MDA-MB-231 breast
NCI-H460 lung = system: NCI-H460 lung
SK-MEL-2 melanoma = system: SK-MEL-2 melanoma
SK-MEL-5 melanoma = system: SK-MEL-5 melanoma
SN12C renal = system: SN12C renal
UACC-257 melanoma = system: UACC-257 melanoma
ACHN renal = system: ACHN renal

| Structure (SMILES) | TGI (A498 renal) [µM] | TGI (A549 NSCLC) [µM] | TGI (HCC-2998 colon) [µM] | TGI (MALME-3M melanoma) [µM] | TGI (MDA-MB-231 breast) [µM] | TGI (NCI-H460 lung) [µM] | TGI (SK-MEL-2 melanoma) [µM] | TGI (SK-MEL-5 melanoma) [µM] | TGI (SN12C renal) [µM] | TGI (UACC-257 melanoma) [µM] | TGI (ACHN renal) [µM] | GI50 (A549 NSCLC) [µM] | GI50 (ACHN renal) [µM] | GI50 (NCI-H460 lung) [µM] | GI50 (SK-MEL-2 melanoma) [µM] | GI50 (SK-MEL-5 melanoma) [µM] | GI50 (SN12C renal) [µM] |
| --- | --- | --- | --- | --- | --- | --- | --- | --- | --- | --- | --- | --- | --- | --- | --- | --- | --- |
| CC[C@@]1(O)C(=O)OCc2c1cc1n(c2=O)Cc2c-1nc1ccc(N)cc1c2CC[Si](C)(C)C | 0.0189 | 0.177 | 0.103 | 0.31 | 0.428 | < 0.013 | 0.427 | < 0.0222 | < 0.01 | 0.155 |  |  |  |  |  |  |  |
| CN1C/C(=C\c2ccccc2)C2=NN(C(N)=S)[C@H](c3ccccc3)[C@@H]2C1 | > 100 | > 100 | > 100 | > 100 |  | > 100 | > 100 |  | > 100 | > 100 | > 100 |  |  |  |  |  |  |
| C=CCSC1=N/C(=C\c2ccc(C)cc2)C(=O)N1CC=C | 51.8 | 65.4 | 74.3 |  | > 100 | > 100 | 61 | 27.3 | 28.2 | 59.8 | > 100 |  |  |  |  |  |  |
| O=C(O)c1ccccc1Sc1ccc(C=C2NC(=S)N(c3ccccc3)C2=O)s1 | > 100 |  | > 100 | > 100 | > 100 | > 100 | > 100 | > 100 | > 100 | > 100 | > 100 |  |  |  |  |  |  |
| c1ccc(-c2cc(-c3ccccc3)nc(-c3ccncc3)c2)cc1 |  | > 100 | > 100 | > 100 | > 100 |  | > 100 | > 100 | > 100 | > 100 | > 100 |  |  |  |  |  |  |
| O=C1CC2(CCN(Cc3ccccc3)CC2)C(=O)N1N1CCCCC1 | > 100 | > 100 |  | > 100 | > 100 | > 100 | > 100 | > 100 | > 100 | > 100 | > 100 |  |  |  |  |  |  |
| c1c2c(cc3c1OCO3)-c1ncc3cc4c(cc3c1C2)OCO4 |  | > 77 | > 32.4 |  |  | > 47.1 | > 87.1 | 0.479 | > 100 |  | 6.33 | 0.702 | 0.0337 | 0.108 | > 8.58 | 0.216 | 0.0414 |
| Cc1n[nH]c(=O)c2c3c([nH]c12)-c1ccccc1C3 | > 100 | > 100 |  | > 100 | > 100 | > 100 | > 100 | > 100 | > 100 | > 100 | > 100 |  |  |  |  |  |  |
| CCCNC(=O)c1cc(OC)c(OC)cc1NC(=O)C12CC3CC(CC(C3)C1)C2 | 31.6 | 35.3 |  | 32.9 | 31.4 | 43.1 | 29.5 | > 100 | 29.6 | 32.8 | 30.9 |  |  |  |  |  |  |
| CC(=O)N(C(=O)CC(=O)N1N=C(C)C(N=Nc2cccc([N+](=O)[O-])c2)C1=O)c1ccc(Cl)cc1 (centres undefined) |  | > 10 | > 10 | > 10 | > 10 |  |  | > 10 | > 10 | > 10 | > 10 |  |  |  |  |  |  |
